According to patent US20110152166A1, “METHOD OF MODULATION OF PROTEIN PHOSPHORYLATION-DEPENDENT CONFORMATIONAL TRANSITIONS WITH LOW MOLECULAR WEIGHT COMPOUNDS” (priority 2006, published 2011):

Experiments:
[1] = test system: GST-S6K1-T2[Thr412Glu] in HEK 293 cells; assay: S6K activity and activation loop phosphorylation in transfected HEK 293 cells; type: cell-based, human; details: 200 μM, 90 minutes
Description: FIG. 4—Small compounds designed to bind the HM/PIF-pocket of PDK1 can block the PDK1-dependent phosphorylation and activation of substrates that require docking to the HM/PIF-pocket of PDK1. (A) Effect of compound 1 (100 and 200 μM) on PDK1 phosphorylation of its substrate S6K1. The phosphorylation reaction was performed in vitro with [γ^32P]ATP and then separated on SDS-PAGE followed by exposure to phosphorimager. The radioactive band corresponding to phosphorylated GST-56K1-T2[Thr412Glu] (S6K[412E]) is indicated. (B) PDK1 or PDK1[Val127Leu] (PDK1[V127L]) were pre-incubated with GST-[…]N-SGK1 [Ser422Asp] […] (C) The activity of S6K was measured in vitro after glutathione sepharose purification; aliquots of purified proteins were separated on SDS-PAGE and the level of activation loop phosphorylation was visualized by immunoblotting using phospho-specific antibodies that recognize the phosphorylated activation loop, followed by stripping of the membranes and re-probing with anti-GST to verify the presence of equal amounts of protein. (D) Cells overexpressing GST-56K1-T2[Thr412Glu] were treated as in (C) but S6K activity was measured in vitro after immunoprecipitation of the GST-fusion protein with anti-GST antibodies; the level of S6K expression was analysed by western-blotting of crude extracts. […]

[2] = molecular target: T1, Thr221-phosphorylated S6K11-364 (Rattus norvegicus, UniProt P67999); assay: S6K1 in vitro reconstitution kinase assay with tail peptides; type: biochemical
T1 construct: Purified HA-S6K1-364 was incubated with synthetic S6K1 (rat) tail peptides; made in house; host or cells: COS7, co-transfected with myc-PDK1; anti-HA immunoprecipitate
T1 sequence (P67999 24-387): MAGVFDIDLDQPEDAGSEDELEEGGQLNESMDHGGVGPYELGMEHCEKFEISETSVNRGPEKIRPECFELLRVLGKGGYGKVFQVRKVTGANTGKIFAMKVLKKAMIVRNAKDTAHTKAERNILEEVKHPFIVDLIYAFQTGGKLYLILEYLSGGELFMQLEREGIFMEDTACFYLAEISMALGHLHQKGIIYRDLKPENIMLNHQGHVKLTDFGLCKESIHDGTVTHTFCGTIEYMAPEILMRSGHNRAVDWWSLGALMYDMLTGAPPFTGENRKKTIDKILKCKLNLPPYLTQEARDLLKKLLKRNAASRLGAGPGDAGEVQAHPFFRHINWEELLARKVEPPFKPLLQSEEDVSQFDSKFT
Description: We established an in vitro reconstitution assay that could test a direct activation of the AGC kinase domain by the tail phosphate and characterize its cooperation with the HM and activation loop phosphates. The deletion mutant S6K11-364, which contains the kinase domain, but lacks the region of the tail containing the tail site and the HM as well as the C-terminal autoinhibitory domain, was expressed and purified from COS7 cells, either non-phosphorylated or phosphorylated at T221 in the activation loop, achieved by co-expression with PDK1. Purified S6K11-364 was then incubated with synthetic peptides of the S6K1 tail (residues 366-395: QTPVDS^371PDDSTLSESANQVFLGFT^389YVAPSV), which were either non-phosphorylated (S371/T389), phosphorylated at the tail site (pS371/T389), phosphorylated in the HM (S371/pT389) or phosphorylated at both sites (pS371/pT389). Subsequently, the kinase activity of S6K11-364 was determined.
Kinase assays for PKB, RSK, S6K, MSK were done as described previously (Frodin et al., 2002). […] After washing with 150 mM orthophosphoric acid, [^32P]phosphate incorporated into peptide substrate was quantified in an FLA-3000 apparatus (Fujifilm). […]

Row | stimulation of kinase activity (in words) [2] | Compound | S6K1-T2[Thr412Glu] activity after cell treatment (in words) [1] | phosphorylation at the activation loop of S6K1-T2[Thr412Glu] (in words) [1]
1 | – | O=C(O)CSC(CC(=O)c1ccc(Cl)cc1)c1ccccc1 (stereo not drawn) [Compound 1] | decrease | decrease in the phosphorylation at the activation loop
2 | did not stimulate | S371/T389: synthetic S6K1 tail peptide (residues 366-395), non-phosphorylated | – | –
